# Assays:
# [1] = test system: cDDP^R cell lines (2008-cp, A172-cp and SR2) and cDDP^S cell lines (2008, A172 and SCLC); test: Sensitization to platinum drugs in the absence or presence of copper chelator; format: cell-based, human; settings: copper chelator treated cDDP^R cells with enhanced hCtr1 expression
# Protocol: Furthermore, ^64Cu uptake and platinum (Pt) uptake, and sensitization to cisplatin and carboplatin in three pairs of cDDP^R cell lines (2008-cp, A172-cp and SR2) and cDDP^S cell lines (2008, A172 and SCLC) in the absence or presence of copper chelator (5 μmol/L of TM, 100 μmol/L of trientine or 100 μmol/L of D-pen) were evaluated.
# ovarian cancer cells = test: Cisplatin cytotoxicity (IC50) in the presence or absence of copper histidine; format: cell-based; settings: copper ions 3000 μM, 24 hours
# Protocol: The cytotoxicity of shControl cells (shControl), IMP3 knockdown cells (shIMP3-268, shIMP3-596) and Lin28B knockdown cells (shLin28B-860, shLin28B-508) in response to cisplatin was determined using the WST-1 (TaKaRa) assay. In brief, 3×10^4 ovarian cancer cells/well were grown in 96-well plates overnight and treated with cisplatin at various concentrations in the presence or absence of copper ions (3000 μM) (Copper Histidine) for 24 hours. After incubation, the […] was used to determine the IC50 of cisplatin. Dose-inhibition curves and the IC50 of cisplatin were calculated for the different cell types using commercial software (SigmaPlot V10.0, Systat Software, Inc., Richmond, Calif., USA). A copper histidine solution was prepared. In brief, copper(II) chloride (0.106 g; Sigma-Aldrich) and L-histidine (0.244 g; Sigma-Aldrich) were dissolved in 90 ml of sterile 0.9% sodium chloride, titrated to a pH of […] to 7.40, and then filtered through a 0.22-μm filter before use.
SMILES,sensitivity of cells to the platinum drug [1],"IC50 of cisplatin when combined with copper histidine (ovarian cancer cells; IMP3- or Lin28B-knockdown cells, p<0.05)",IC50 of cisplatin when combined with copper histidine (ovarian cancer cells; shControl cells)
N.N.O=C([O-])C1(C(=O)[O-])CCC1.[Pt+2] [carboplatin],increased sensitivity,–,–
N.N.[Cl][Pt][Cl] [cisplatin],higher increases,–,–
N[C@@H](Cc1c[nH]cn1)C(=O)O.[Cu] [copper histidine],–,increased,no significant (NS) effect
O=C1[O][Pt]2([NH][C@@H]3CCCC[C@H]3[NH]2)[O]C1=O [oxaliplatin],not,–,–

# Reference: US9770462B2, “Method of treating ovarian, tubal and peritoneal cancer” (NATIONAL CHENG KUNG UNIVERSITY, priority 2015, dated 2017)
